Among the data in patent US20080280933A1, “BENZIMIDAZOLYL COMPOUNDS” (priority 2006, published 2008) are EC50 values, retold here.

Read-outs that look alike come from different tables or passages of the source.

The test concerns the target T1, mGluR2 receptor (metabotropic glutamate receptor 2) (Homo sapiens, UniProt Q14416).
T1 construct: expressed in transfected cells
The test can be described thus: mGluR2 Potentiator Screen, FLIPR, EC10-EC20 glutamate challenge. The test is classed as cell-based. The protocol:
Procedure for mGluR2 Potentiator Screen NLB Methods EC10-EC20 Challenge Cell Culture and Plating:
Cells used for this screen are HEK cells stably transfected with the mGluR2 receptor (metabotropic glutamate receptor 2) and the Gα15 G protein. Clones were identified by functional activity (FLIPR). Cells are grown in growth media containing: DMEM High Glucose with Glutamine and Na Pyruvate (GIBCO), 10% (v/v) Heat inactivate FBS (GIBCO) G418 500 ug/ml (from 50 mg/ml stock) (GIBCO) and Blasticidin 3 ug/ml (from 5 mg/ml stock made in H2O) (Invitrogen).
2 days before the assay cell are trypsinized with 0.25% trysin/EDTA (GIBCO), spun down at 1000 rpm for 5 minutes, resuspended in growth media and plated on polystyrene 384 well black wall/clear bottom poly-D-lysine coated plates at a density of approximately 18,000 cells/well in a volume of 50 μL per well. One day before the assay the growth media is removed from the plates by flicking and replaced with media containing DMEM High Glucose without Glutamine and Na Pyruvate (GIBCO) and 10% (v/v) dialyzed FBS (GIBCO). The reason for the removal of glutamine the day before the assay is to minimize the amount of glutamate that will be present during the assay, as endogenous glutarnate released from the cells can reduce the fluorescent response and interfere with the FLIPR screen.
FLIPR Methods and Data Analysis:
On the day of the assay, the FLIPR assay is performed using the following methods:
The pH is adjusted to 7.4 with 1M NaOH. Prepare a 2 mM (approx.) stock solution of Fluo-4.am (Molecular Probes) dye in DMSO −22 μl DMSO per 50 ug vial (440 μL per 1 mg vial). Make a 1 mM (approx.) flou-4, PA working solution per vial by adding 22 μl of 20% pluronic acid (PA) (Molecular Probes) in DMSO to each 50 ug vial (440 μL per 1 mg vial). Prepare a 250 mM Probenecid (Sigma) stock solution by dissolving 0.71 g into 5 ml 1N NaOH and 5 ml assay buffer (for each liter of assay wash buffer). Make 4 uM (approx.) dye incubation media by adding 2.50 ug vials per 11 ml DMEM high glucose without glutamine (220 ml per 1 mg vial). Add 110 μL probenecid stock per 11 ml (2.5 mM final [concentration]). To the dye media add 3 units/ml of glutamic-pyruvic transaminase (GPT, Sigma) and 3 mM Na Pyruvate. The assay has worked with dye concentrations from 2 uM to 8 uM dye as well. To the assay buffer from drug preparation, add 1.83 mls DMSO and 400 μL. 15.8% P104 (from New Leads biology) per liter for final concentrations of 0.18% DMSO and 0.006% P104. To the assay buffer for cell washing, add probenecid in the same manner and concentration that was used for the dye media.
Remove growth media from cell plates by flicking. Add 50 μl/well dye solution. Incubate 1 hour at 37° C. and 5% CO2. Remove dye solution and wash 3 times with assay buffer+probenecid (100 μl probenecid stock per 10 ml buffer), leaving 30 μL/well assay buffer. Wait at least 10-15 minutes. Compounds and agonist challenge additions are performed with the FLIPR. The in addition is for test compounds, which are added as 15 μL of 4× [concentration] of potentiator. The second 2nd addition is 15 μL of 4× [concentration] of agonist or challenge. This achieves 1× concentration of all compounds only after 2nd addition. The 1st and 2nd additions are performed separately using the FLIPR, which give 2 different data files. Compounds are pretreated at least 30 minutes before agonist addition.
Results are analyzed by dividing the peak fluorescent value of the FLIPR response by the […] to achieve a ratio response. The ratios are then analyzed by curve fitting programs. Since potent compounds can give an inverted U dose response curve (due to effects on endogenous glutamate by the potentiators) points are deleted at concentrations higher than the concentration that gives the maximum effect. Maximum values for dose response curves (forced fitting) are derived from standards on the plate.
Compound Preparation and Glutamate Challenge: […]

T1 sequence (Q14416 19-872, species assumed): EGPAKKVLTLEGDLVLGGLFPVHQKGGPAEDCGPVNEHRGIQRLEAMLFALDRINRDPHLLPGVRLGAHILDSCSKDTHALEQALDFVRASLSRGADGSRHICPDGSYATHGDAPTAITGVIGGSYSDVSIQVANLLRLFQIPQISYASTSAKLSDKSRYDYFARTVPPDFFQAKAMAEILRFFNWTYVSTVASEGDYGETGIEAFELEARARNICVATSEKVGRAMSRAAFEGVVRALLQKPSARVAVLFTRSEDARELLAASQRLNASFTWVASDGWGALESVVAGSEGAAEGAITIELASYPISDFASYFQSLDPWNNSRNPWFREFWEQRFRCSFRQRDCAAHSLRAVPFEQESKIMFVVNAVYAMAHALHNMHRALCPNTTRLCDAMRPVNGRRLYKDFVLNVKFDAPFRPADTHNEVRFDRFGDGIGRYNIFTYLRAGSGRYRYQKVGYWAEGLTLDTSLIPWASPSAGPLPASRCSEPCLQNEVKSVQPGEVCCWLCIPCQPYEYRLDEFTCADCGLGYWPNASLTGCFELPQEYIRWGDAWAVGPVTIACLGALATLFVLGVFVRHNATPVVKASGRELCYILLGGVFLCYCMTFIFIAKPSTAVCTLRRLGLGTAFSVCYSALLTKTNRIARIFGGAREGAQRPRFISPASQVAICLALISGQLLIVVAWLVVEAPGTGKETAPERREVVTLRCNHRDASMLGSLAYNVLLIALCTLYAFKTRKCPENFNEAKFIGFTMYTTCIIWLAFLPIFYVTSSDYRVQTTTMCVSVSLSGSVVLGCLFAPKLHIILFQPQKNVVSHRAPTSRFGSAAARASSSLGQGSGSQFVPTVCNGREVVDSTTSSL

On to `Cn1c(CN2CCC3(CC2)CN(C(=O)c2ccco2)c2ccccc23)nc2ccccc21` [compound 63], for which, where the note is “read-out: EC50”, the EC50 was found to be 4.51 µM.
Same read-out and setting: the value for `CCCC(=O)N1CC2(CCN(Cc3nc4ccccc4n3C)CC2)c2ccccc21` [compound 64] was 1.41 µM.
The same measure, in the same setting: the value for `COc1cccc(C2CCN(Cc3nc4ccccc4n3C)CC2)c1` [compound 65] was 0.241 µM.
In the case of `CC(=O)C1(c2ccccc2)CCN(Cc2nc3ccccc3n2C)CC1` [compound 66], the EC50 (EC50 (uM)) was > 5.23 µM.
For the compound `Cn1c(CN2CC[C@@H]3c4ccccc4CC[C@@H]3C2)nc2ccccc21` [compound 67], the EC50 (read-out: EC50) came out at 0.693 µM.
Same read-out and setting: the value for `Cn1c(CN2CCC(O)(c3cc(Br)cc(Br)c3)CC2)nc2ccccc21` [compound 68] was 1.24 µM; that for `COc1cccc2c1CCCC21CCN(Cc2nc3ccccc3n2C)CC1` [compound 69] was > 6.97 µM; that for `Cn1c(CN2CCC(O)(c3ccc(Cl)c(C(F)(F)F)c3)CC2)nc2ccccc21` [compound 71] was 4.35 µM.
As for `COc1cccc(C2(C#N)CCN(Cc3nc4ccccc4n3C)CC2)c1` [compound 72], the concentration giving a half-maximal response (EC50) (EC50 (uM)) was 10.6 µM.
For `CCC(=O)C1(c2ccccc2)CCN(Cc2nc3ccccc3n2C)CC1` [compound 73], the EC50 (EC50 (uM)) is 3.97 µM.
With `Cn1c(CN2CCC(c3ccccc3)CC2)nc2ccccc21` [compound 74], the EC50 (read-out: EC50) amounted to 0.212 µM.
On the same count and under the same terms, then `Cn1c(CN2CCC(O)(c3ccc(Br)cc3)CC2)nc2ccccc21` [compound 75], with > 7.48 µM.
The same measure, in the same setting: then `Cn1c(CN2CCC(O)(c3ccc(Cl)cc3)CC2)nc2ccccc21` [compound 76], with > 5.73 µM.
Take `Cn1c(CN2CCC(C#N)(c3ccccc3)CC2)nc2ccccc21` [compound 77]: the EC50 (EC50 (uM)) was > 4.71 µM.
As for `CC(C)Oc1ccccc1C1CCN(Cc2nc3ccccc3n2C)CC1` [compound 78], the EC50 (read-out: EC50) turned out to be 0.475 µM.
Still for that read-out and setting: the value for `Cn1c(CN2CCC(c3ccccc3F)CC2)nc2ccccc21` [compound 79] was 0.021 µM; that for `C[C@@H]1CN(Cc2nc3ccccc3n2C)CC[C@]1(C)c1cccc(NS(C)(=O)=O)c1` [compound 80] was > 1.25 µM.
Take `COC(=O)c1cccc([C@]2(C)CCN(Cc3nc4ccccc4n3C)C[C@@H]2C)c1` [compound 81]: the 50% effective concentration (EC50) (read-out: EC50) was 6.08 µM.
In the case of `CC1CN(Cc2nc3ccccc3n2C)CC(C)C1(O)c1ccccc1` (centres unmarked) [compound 82], the EC50 (read-out: EC50) was > 7.44 µM.
The same measure, in the same setting: then `C[C@@H]1CN(c2cccc(C3CCN(Cc4nc5ccccc5n4C)CC3)c2)C[C@H](C)O1` [compound 83], with 0.82 µM; and `Cn1c(CN2CCC(c3ccccc3OCC3CCC3)CC2)nc2ccccc21` [compound 84], with 0.744 µM.
In the case of `CC1CN(CCOc2ccccc2C2CCN(Cc3nc4ccccc4n3C)CC2)CC(C)O1` (centres unmarked) [compound 85], the EC50 (read-out: EC50) came to 1.37 µM.
`Cn1c(CN2CCC(c3ccccc3OCC3CCCC3)CC2)nc2ccccc21` [compound 86]: where the note is “read-out: EC50”, the EC50 turned out to be 2.31 µM.
Turning to `CC(C)OCCOc1ccccc1C1CCN(Cc2nc3ccccc3n2C)CC1` [compound 87], the EC50 (read-out: EC50) came to 0.621 µM.
Same read-out and setting: then `CN(C)CCCOc1ccccc1C1CCN(Cc2nc3ccccc3n2C)CC1` [compound 88], with 4.19 µM; and `CCOCCOc1ccccc1C1CCN(Cc2nc3ccccc3n2C)CC1` [compound 89], with 1.75 µM.
Consider `CCOCCCOc1ccccc1C1CCN(Cc2nc3ccccc3n2C)CC1` [compound 91], for which the EC50 (read-out: EC50) was 1.4 µM.
With `Cn1c(CN2CCC(c3ccccc3OCCC3CC3)CC2)nc2ccccc21` [compound 92], the EC50 (read-out: EC50) was > 3.27 µM.
Take `CCCCCOc1ccccc1C1CCN(Cc2nc3ccccc3n2C)CC1` [compound 93]: the EC50 (read-out: EC50) came to 0.324 µM.
Turning to `CC[C@H](C)COc1ccccc1C1CCN(Cc2nc3ccccc3n2C)CC1` [compound 94], under “read-out: EC50”, the concentration giving a half-maximal response (EC50) was 1.61 µM.
Same read-out and setting: the value for `CCCCOc1ccccc1C1CCN(Cc2nc3ccccc3n2C)CC1` [compound 95] was 1.04 µM.
The same measure, in the same setting: then `CC(C)COc1ccccc1C1CCN(Cc2nc3ccccc3n2C)CC1` [compound 96], with > 3.92 µM; and `Cn1c(CN2CCC(c3ccccc3OCCc3ccccn3)CC2)nc2ccccc21` [compound 97], with > 9.64 µM.
Same read-out and setting: the value for `CN1CCC[C@H]1COc1ccccc1C1CCN(Cc2nc3ccccc3n2C)CC1` [compound 98] was > 4.81 µM; that for `Cn1c(CN2CCC(c3ccccc3OC3CCOCC3)CC2)nc2ccccc21` [compound 99] was 2.12 µM; that for `CCOc1ccccc1C1CCN(Cc2nc3ccccc3n2C)CC1` [compound 100] was 2.91 µM.
In the case of `Cn1c(CN2CCC(c3ccccc3O[C@H]3CCOC3)CC2)nc2ccccc21` [compound 101], the concentration for a half-maximal effect (EC50) (read-out: EC50) was 5.72 µM.
Regarding `Cn1c(CN2CCC(c3ccccc3OC3Cc4ccccc4C3)CC2)nc2ccccc21` [compound 102], the EC50 (read-out: EC50) is 1.5 µM.
Still for that read-out and setting: the value for `CC(Oc1ccccc1C1CCN(Cc2nc3ccccc3n2C)CC1)c1ccccc1` (centres unmarked) [compound 103] was > 5.64 µM; that for `CCN1CC2(CCN(Cc3nc4ccccc4n3C)CC2)c2cc(Cl)ccc21` [compound 105] was 3.37 µM.
Take `CC(C)CN1CC2(CCN(Cc3nc4ccccc4n3C)CC2)c2ccccc21` [compound 106]: the EC50 (read-out: EC50) worked out at 2.58 µM.
Same read-out and setting: the value for `Cn1c(CN2CCC3(CC2)CN(CC2CCCO2)c2ccc(Cl)cc23)nc2ccccc21` (centres unmarked) [compound 107] was 6.65 µM.
The same measure, in the same setting: the value for `Cn1c(CN2CCC3(CC2)CN(Cc2cccnc2)c2ccc(Cl)cc23)nc2ccccc21` [compound 108] was > 8.73 µM; that for `Cn1c(CN2CCC3(CC2)CN(Cc2ccccc2)c2ccccc23)nc2ccccc21` [compound 109] was 5.22 µM; that for `CCN1CC2(CCN(Cc3nc4ccccc4n3C)CC2)c2ccccc21` [compound 110] was 4.98 µM.
On to `Cn1c(CN2CCC3(CC2)CN(CC(C)(C)C)c2ccccc23)nc2ccccc21` [compound 111], for which the EC50 (read-out: EC50) was determined as 10.3 µM.
For `Cn1c(CN2CCC3(CC2)CN(Cc2cccnc2)c2ccccc23)nc2ccccc21` [compound 112], under “read-out: EC50”, the concentration giving a half-maximal response (EC50) is > 9.88 µM.
For `CC(C)CN1CC2(CCN(Cc3nc4ccccc4n3C)CC2)c2cc(Cl)ccc21` [compound 113], the EC50 (read-out: EC50) is 4.37 µM.
In the case of `CCN1CC2(CCN(Cc3nc4ccccc4n3C)CC2)c2cc(F)ccc21` [compound 114], the EC50 (read-out: EC50) was 2.38 µM.
Consider `CC(C)CN1CC2(CCN(Cc3nc4ccccc4n3C)CC2)c2cc(F)ccc21` [compound 115], for which the EC50 (read-out: EC50) was determined as 6.49 µM.
Still for that read-out and setting: then `CC(C)CCN1CC2(CCN(Cc3nc4ccccc4n3C)CC2)c2ccccc21` [compound 116], with 3.12 µM; and `Cn1c(CN2CCC3(CC2)CN(CC2CCCO2)c2ccc(F)cc23)nc2ccccc21` (centres unmarked) [compound 117], with > 9.01 µM; and `CCN1CC2(CCN(Cc3nc4ccccc4n3C)CC2)c2cc(C)ccc21` [compound 118], with 3.41 µM.
Turning to `Cc1ccc2c(c1)C1(CCN(Cc3nc4ccccc4n3C)CC1)CN2CC(C)C` [compound 119], the half-maximal effective concentration (EC50) (read-out: EC50) came out at 2.9 µM.
For `Cc1ccc2c(c1)C1(CCN(Cc3nc4ccccc4n3C)CC1)CN2CCC(C)C` [compound 120], the EC50 (read-out: EC50) was 2.7 µM.
On the same count and under the same terms, the value for `Cc1cc(C)c2c(c1)C1(CCN(Cc3nc4ccccc4n3C)CC1)CN2CCC(C)C` [compound 121] was 1.15 µM.
Regarding `Cc1cc(C)c2c(c1)C1(CCN(Cc3nc4ccccc4n3C)CC1)CN2CC1CCCO1` (centres unmarked) [compound 123], the EC50 (read-out: EC50) was 5.03 µM.
On the same count and under the same terms, the value for `Cc1ccc2c(c1)C1(CCN(Cc3nc4ccccc4n3C)CC1)CN2CC1CCCO1` (centres unmarked) [compound 124] was 4.11 µM; that for `Cc1cc(C)c2c(c1)C1(CCN(Cc3nc4ccccc4n3C)CC1)CN2CC(C)C` [compound 125] was 3.93 µM.
